Results taken from US12357623B2, “Method for treating a disease or condition using a pyrazole compound or formulation thereof” (Rigel Pharmaceuticals, Inc., priority 2021, dated 2025).
Counter-ions that a name gives are not always drawn.

How the values were obtained:
[1] = Hygroscopicity evaluation (DVS) of salts of compound I-18; type: physicochemical; details: 25° C.
Method: To investigate the solid form stability as a function of humidity, DVS isotherm plot of the K salt, Arginine salt, Choline salt and Tris salt were collected at 25° C. between 0 and 95% RH.

[2] = Physical and chemical stability of salts of compound I-18; type: physicochemical; details: for Area (%) of peak at RRT 1.00: main peak; for Area (%) of peak at RRT 1.17: peak corresponds to I-1 formed by hydrolysis; for Initial purity: before storage
Method: The physical and chemical stability of the K salt, Arginine salt, Choline salt and Tris salt were evaluated under conditions of 25° C./60% RH and 40° C./75% RH for 1 week. Each sample was added into 3 mL glass vials, sealed by parafilm with several holes, and kept under tested condition. After one week, samples was taken for XRPD and HPLC purity test.

[3] = 25° C./60% RH, 1 week, listed as choline salt
[4] = 25° C./60% RH/1 week, listed as Choline salt
[5] = 40° C./75% RH, 1 week, listed as choline salt
[6] = Initial, listed as choline salt
[7] = 25° C./60% RH, 1 week, listed as tris salt
[8] = 40° C./75% RH, 1 week, listed as tris salt
[9] = 25° C./60% RH, 1 week, listed as arginine salt
[10] = 40° C./75% RH, 1 week, listed as arginine salt
[11] = Initial, listed as arginine salt

## CCO[C@H]1CC[C@H](n2cc(NC(=O)c3csc(-c4cnn(C(C)OP(=O)(O)O)c4)n3)c(-c3nc(F)ccc3F)n2)CC1 (stereo partly shown) [Compound I-111, 1-(4-(4-((3-(3,6-difluoropyridin-2-yl)-1-((1r, 4r)-4-ethoxycyclohexyl)-1H-pyrazol-4-yl)carbamoyl)thiazol-2-yl)-1H-pyrazol-1-yl)ethyl dihydrogen phosphate choline salt]
[1]; at 70% RH, listed as Choline salt
  water uptake (DVS): 3.66%
[1]; at 95% RH, listed as Choline salt
  water uptake (DVS): 32.4%
[2]; [3]
  Area (%) of peak at RRT 0.77: 0.04%
  Area (%) of peak at RRT 1.35: 0.10%
  Area (%) of peak at RRT 1.45: 0.07%
  Area (%) of peak at RRT 1.71: 0.05%
  Area (%) of peak at RRT 1.73: 0.46%
  HPLC purity change: no HPLC purity decrease
  Area (%) of peak at RRT 1.00: 98.66%
  Area (%) of peak at RRT 1.17: 0.58%
[2]; [4]
  Form change (XRPD): no form change and No
  Purity/Initial purity: 100.0%
[2]; [5]
  Area (%) of peak at RRT 0.77: 0.04%
  Area (%) of peak at RRT 1.35: 0.14%
  Area (%) of peak at RRT 1.45: 0.11%
  Area (%) of peak at RRT 1.71: 0.08%
  Area (%) of peak at RRT 1.73: 0.46%
  HPLC purity change: a purity decrease was observed
  Area (%) of peak at RRT 1.00: 97.81%
  Area (%) of peak at RRT 1.17: 1.31%
[2]; 40° C./75% RH/1 week, listed as Choline salt
  Form change (XRPD): no form change and No
[2]; Initial
  Area (%) of peak at RRT 1.35: <0.03%
[2]; [6]
  Area (%) of peak at RRT 0.77: 0.03%
  Area (%) of peak at RRT 1.13: 0.06%
  Area (%) of peak at RRT 1.45: 0.06%
  Area (%) of peak at RRT 1.71: 0.06%
  Area (%) of peak at RRT 1.73: 0.33%
  Area (%) of peak at RRT 1.00: 98.70%
  Area (%) of peak at RRT 1.17: 0.75%
[2]; listed as Choline salt
  Initial purity: 98.70 area %

## CCO[C@H]1CC[C@H](n2cc(NC(=O)c3csc(-c4cnn(C(C)OP(=O)(O)O)c4)n3)c(-c3nc(F)ccc3F)n2)CC1 (stereo partly shown) [Compound I-49, 1-(4-(4-((3-(3,6-difluoropyridin-2-yl)-1-((1r, 4r)-4-ethoxycyclohexyl)-1H-pyrazol-4-yl)carbamoyl)thiazol-2-yl)-1H-pyrazol-1-yl)ethyl dihydrogen phosphate tris salt]
[1]; at 70% RH, listed as Tris salt
  water uptake (DVS): 6.06%
[1]; at 95% RH, listed as Tris salt
  water uptake (DVS): 39.5%
[2]; 25° C./60% RH, 1 week
  Area (%) of peak at RRT 1.13: 0.06%
[2]; [7]
  Area (%) of peak at RRT 0.77: <0.03%
  Area (%) of peak at RRT 1.45: 0.35%
  Area (%) of peak at RRT 1.71: 0.80%
  Area (%) of peak at RRT 1.73: 0.55%
  HPLC purity change: no HPLC purity decrease
  Area (%) of peak at RRT 1.00: 96.61%
  Area (%) of peak at RRT 1.17: 1.63%
[2]; 25° C./60% RH/1 week, listed as Tris salt
  Form change (XRPD): no form change and No
[2]; [8]
  Area (%) of peak at RRT 0.77: 0.03%
  Area (%) of peak at RRT 1.45: 0.47%
  Area (%) of peak at RRT 1.71: 0.88%
  Area (%) of peak at RRT 1.73: 0.84%
  HPLC purity change: a purity decrease was observed
  Area (%) of peak at RRT 1.00: 95.03%
  Area (%) of peak at RRT 1.17: 2.69%
[2]; 40° C./75% RH/1 week, listed as Tris salt
  Form change (XRPD): no form change and No
[2]; Initial, listed as tris salt
  Area (%) of peak at RRT 0.77: <0.03%
  Area (%) of peak at RRT 1.13: 0.07%
  Area (%) of peak at RRT 1.45: 0.37%
  Area (%) of peak at RRT 1.71: 0.86%
  Area (%) of peak at RRT 1.73: 0.76%
  Area (%) of peak at RRT 1.00: 96.06%
  Area (%) of peak at RRT 1.17: 1.87%
[2]; listed as Tris salt
  Initial purity: 96.06 area %

## CCO[C@H]1CC[C@H](n2cc(NC(=O)c3csc(-c4cnn(C(C)OP(=O)(O)O)c4)n3)c(-c3nc(F)ccc3F)n2)CC1 (stereo partly shown) [Compound I-110, 1-(4-(4-((3-(3,6-difluoropyridin-2-yl)-1-((1r, 4r)-4-ethoxycyclohexyl)-1H-pyrazol-4-yl)carbamoyl)thiazol-2-yl)-1H-pyrazol-1-yl)ethyl dihydrogen phosphate arginine salt]
[1]; at 80% RH
  water uptake (DVS): 1.43%
[1]; from water uptake at 80% RH
  hygroscopicity (DVS): slight hygroscopic
[2]; 25° C./60% RH, 1 week
  Area (%) of peak at RRT 1.13: 0.06%
[2]; [9]
  Area (%) of peak at RRT 0.77: 0.03%
  Area (%) of peak at RRT 1.35: 0.06%
  Area (%) of peak at RRT 1.45: 0.50%
  Area (%) of peak at RRT 1.71: 0.74%
  Area (%) of peak at RRT 1.73: 0.61%
  HPLC purity change: slight purity decrease
  Area (%) of peak at RRT 1.00: 95.31%
  Area (%) of peak at RRT 1.17: 2.68%
[2]; 25° C./60% RH/1 week, listed as Arginine salt
  Form change (XRPD): no form change and No
[2]; 40° C./75% RH, 1 week
  Area (%) of peak at RRT 1.13: 0.06%
[2]; [10]
  Area (%) of peak at RRT 0.77: 0.04%
  Area (%) of peak at RRT 1.35: 0.11%
  Area (%) of peak at RRT 1.45: 0.47%
  Area (%) of peak at RRT 1.71: 0.73%
  Area (%) of peak at RRT 1.73: 0.60%
  HPLC purity change: slight purity decrease
  Area (%) of peak at RRT 1.00: 95.50%
  Area (%) of peak at RRT 1.17: 2.48%
[2]; 40° C./75% RH/1 week, listed as Arginine salt
  Form change (XRPD): no form change and No
[2]; Initial
  Area (%) of peak at RRT 1.35: <0.03%
[2]; [11]
  Area (%) of peak at RRT 0.77: <0.03%
  Area (%) of peak at RRT 1.13: <0.03%
  Area (%) of peak at RRT 1.45: 0.44%
  Area (%) of peak at RRT 1.71: 0.73%
  Area (%) of peak at RRT 1.73: <0.53%
  Area (%) of peak at RRT 1.00: 95.91%
  Area (%) of peak at RRT 1.17: 2.39%
[2]; listed as Arginine salt
  Initial purity: 95.91 area %
